From patent US11242337B2, “Compounds useful for treating gastrointestinal tract disorders” (Ardelyx, Inc., priority 2017, dated 2022)

Key:
[1] = test system: gastrointestinal transit; assay: Restoration of gastrointestinal motility in opioid induced constipation (loperamide); assay type: in vivo, mice; details: oral gavage 15 mg/kg, loperamide s.c., Evans Blue small intestinal transit 30 minutes
Method: Approximately eight-week old, female, CD1 […] are purchased from Envigo (Livermore, Calif.), are housed 4 per cage and acclimated for at least 48 hours before study initiation. Animals are fed standard laboratory rodent chow Harlan Teklad Global 2018 (Madison, Wis.). Animals have ad libitum access to food and water for the duration of the acclimation period and are maintained in a temperature and humidity controlled room on a standard light/dark cycle of 6 AM to 6 PM. Following an overnight fast, with free access to water, animals are dosed by oral gavage with varying doses of test compound or vehicle (3 mM HCl, 0.01% Tween80), at a dose volume of 5 mL/kg. […] For an individual animal, the length travels by the Evans Blue dye front is divided by the length of the whole small intestine, measured from the pylorus to the cecum, and multiplied by 100, to provide the distance of the small intestine travelled by the dye as a percentage.

[2] = test system: absorption of sodium from the intestinal lumen; assay: Inhibition of intestinal sodium absorption in rats; assay type: in vivo, Sprague Dawley rats; details: 13-hours post-dose; for response vs control in vivo at 0.03 mg/kg: oral gavage 0.03 mg/kg; for response vs control in vivo at 0.1 mg/kg: oral gavage 0.1 mg/kg; for FFS (1-5): rats, group median fecal form score, 1 normal pellet to 5 liquid fecal streams; for response vs control in vivo at 0.3 mg/kg: oral gavage 0.3 mg/kg
Method: Urinary sodium excretion and fecal form were measured to assess the ability of selected example compounds to inhibit the absorption of sodium from the intestinal lumen. Eight-week old, male, Sprague Dawley rats were purchased from Envigo (Livermore, Calif.), were housed 2 per cage and acclimated for at least 48 hours before study initiation. Animals were fed. Harlan Teklad Global TD.160470 rodent chow (Madison, Wis.), standard laboratory rodent chow Harlan Teklad Global 2018 with the addition of 0.4% inorganic phosphorous. Animals had ad libitum access to food and water for the duration of the study and were maintained in a temperature and humidity controlled room on a standard light/dark cycle of 6 AM to 6 PM. On the day of study initiation, rats (n=5/group) were dosed by oral gavage with test compound or vehicle (3 mM HCl, 0.01% Tween80) at a dose volume of […]. Immediately after dose administration animals were placed in individual metabolic cages. At 13-hours post-dose, urine samples were collected and fecal form was assessed. In addition, the weight of food consumed over the 13-hour period was measured and recorded. Fecal forms were scored according to a common scale associated with increasing fecal water to the wettest observation in the cage's collection funnel (1, normal pellet; 2, pellet adhering to sides of collection funnel due to moisture; 3, loss of normal pellet shape; 4, complete loss of shape with a blotting pattern; 5, liquid fecal streams evident). Fecal form score (FFS) was calculated for each group as the median of each individual rat's FFS within the group and reported in Table 7. Fecal samples were dried using a lyophilizer for at least 3 days, following which dry weight was recorded and fecal fluid content was calculated based on the difference between the wet and dry stool weights. Fecal fluid content was calculated as a change from the vehicle group mean. For urine samples, the volumes were determined gravimetrically. Urine samples were analyzed on an ion chromatography system (Thermo Fisher ICS-3000 or ICS-5000+) coupled with conductivity detectors. Chromatographic separation of cations was performed using an IonPac CS12A (Thermo Fisher) 2×250 mm analytical column with an isocratic elution using 25 mM methanesulfonic acid. Concentrations were interpolated from a standard curve (prepared in 10 mM HCl) for sodium based on retention time and peak area. Thirteen-s-hour urinary sodium excretion (mg/13-hours) was calculated by multiplying urinary sodium concentration by 13-hour urine volume. The urinary sodium excretion of compound treatment was normalized to dietary sodium intake and expressed as a percentage of the vehicle mean.

[3] = Rattus norvegicus, Sprague Dawley rats, read-out: Urinary Na (% of Vehicle, out/in)

Row | SMILES | % Restoration of Transit [1] | response vs control in vivo at 0.003 mg/kg ([2]; Rattus norvegicus, Sprague Dawley rats, oral gavage 0.003 mg/kg, read-out: Urinary Na (% of Vehicle, out/in)) | response vs control in vivo at 0.01 mg/kg ([2]; Rattus norvegicus, Sprague Dawley rats, oral gavage 0.01 mg/kg, read-out: Urinary Na (% of Vehicle, out/in)) | response vs control in vivo at 0.03 mg/kg [2, 3] | response vs control in vivo at 0.1 mg/kg [2, 3] | FFS (1-5) ([2]; 0.003 mg/kg) | FFS (1-5) ([2]; 0.01 mg/kg) | FFS (1-5) ([2]; 0.03 mg/kg) | FFS (1-5) ([2]; 0.1 mg/kg) | response vs control in vivo at 0.3 mg/kg [2, 3] | FFS (1-5) ([2]; 0.3 mg/kg)
1 | N#Cc1cc(Cl)cc2c1C[C@H](N1CCNCC1)[C@H]2Oc1ccc(S(=O)(=O)NC2CCN(C(=O)CCCNC(=O)NCCCCNC(=O)NCCCC(=O)N3CCC(NS(=O)(=O)c4ccc(O[C@H]5c6cc(Cl)cc(C#N)c6C[C@@H]5N5CCNCC5)cc4)CC3)CC2)cc1 [Example 115] | B (20-40%) | > 70% | > 70% | > 70% | < 40% | 1 | 2 | 2 | 2 | – | –
2 | N#Cc1cc(Cl)cc2c1C[C@H](N1CCNCC1)[C@H]2Oc1ccc(S(=O)(=O)NC2CCN(CCOCCNC(=O)NCCCCNC(=O)NCCOCCN3CCC(NS(=O)(=O)c4ccc(O[C@H]5c6cc(Cl)cc(C#N)c6C[C@@H]5N5CCNCC5)cc4)CC3)CC2)cc1 [Example 123, 4-([(1S,2S)-6-Chloro-4-cyano-2-(piperazin-1-yl)-2,3-dihydro-1H-inden-1-yl]oxy)-N-[1-(20-[4-([4-([(1S,2S)-6-chloro-4-cyano-2-(piperazin-1-yl)-2,3-dihydro-1H-inden-1-yl]oxy)phenyl]sulfonamide]piperidin-1-yl)-7,14-dioxo-3,18-dioxa-6,8,13,15-tetraazaicosyl]piperidin-4-yl)benzenesulfonamide] | A (<20%) | – | – | > 70% | 40 to 70% | – | – | 3 | 3 | < 40% | 3
3 | C[C@@H]1CN([C@H]2Cc3c(C#N)cc(Cl)cc3[C@@H]2Oc2ccc(S(=O)(=O)N[C@H]3CCN(CCOCCNC(=O)NCCCCNC(=O)NCCOCCN4CC[C@H](NS(=O)(=O)c5ccc(O[C@H]6c7cc(Cl)cc(C#N)c7C[C@@H]6N6CCN[C@H](C)C6)cc5)C4)C3)cc2)CCN1 [Example 132, 4-([(1S,2S)-6-Chloro-4-cyano-2-[(R)-3-methylpiperazin-1-yl]-2,3-dihydro-1H-inden-1-yl]oxy)-N—[(S)-1-(20-[(S)-3-([4-([(1S,2S)-6-chloro-4-cyano-2-[(R)-3-methylpiperazin-1-yl]-2,3-dihydro-1H-inden-1-yl]oxy)phenyl]sulfonamido)pyrrolidin-1-yl]-7,14-diaxo-3,18-dioxa-5,8,13,15-tetraazaicosyl)pyrrolidin-3-yl]benzenesulfonamide; bis(trifluoroacetic acid)] | C (>40%) | – | – | > 70% | 40 to 70% | – | – | 3 | 3 | < 40% | 3
